Among the data in ChEMBL document CHEMBL2157909, “Design, synthesis, spectral and biological evaluation of novel 1-allyl substituted 2,6-diphenylpiperidin-4-ones and its derivatives of oximes/oxime ethers” (2012) are MIC values, retold here.

In brackets after ≈: the same amount, converted by molar mass.

One experiment concerns Aspergillus flavus. In words: Antifungal activity against Aspergillus flavus ATCC 525 after 72 to 96 hrs by two fold serial dilution method. It counts as functional.
The subject of the next experiment is Escherichia coli. Description: Antibacterial activity against Escherichia coli ATCC 26032 after 24 hrs by two fold serial dilution method. In kind it is functional. As to conditions: ATCC 26032, 24 h.
The subject of a further experiment is Staphylococcus aureus. In words: Antibacterial activity against Staphylococcus aureus ATCC 25930 after 24 hrs by two fold serial dilution method. It counts as functional. Conditions: ATCC 25930, 24 h.
Another experiment concerns Fusarium oxysporum. In words: Antifungal activity against Fusarium oxysporum ATCC 48112 after 72 to 96 hrs by two fold serial dilution method. In kind it is functional.
A further experiment relates to Aspergillus niger. In words: Antifungal activity against Aspergillus niger ATCC 635 after 72 to 96 hrs by two fold serial dilution method. In kind it is functional.
Another experiment deals with Bacillus subtilis. In words: Antibacterial activity against Bacillus subtilis ATCC 530 after 24 hrs by two fold serial dilution method. In kind it is functional. As to conditions: ATCC 530, 24 h.
Another experiment concerns Rhizopus. Description: Antifungal activity against Rhizopus sp. ATCC 2842 after 72 to 96 hrs by two fold serial dilution method. In kind it is functional.
The subject of another experiment is Salmonella typhi. In words: Antibacterial activity against Salmonella typhi ATCC 25021 after 24 hrs by two fold serial dilution method. Conditions: Salmonella enterica, ATCC 25021, 24 h. It counts as functional, Salmonella enterica subsp. enterica serovar Typhi.
For another experiment, the system named is Penicillium chrysogenum. Description: Antifungal activity against Penicillium chrysogenum ATCC 28089 after 72 to 96 hrs by two fold serial dilution method. It counts as functional.
A further experiment concerns Pseudomonas. Description: Antibacterial activity against Pseudomonas ATCC 27853 after 24 hrs by two fold serial dilution method. In kind it is functional. As to conditions: ATCC 27853, 24 h.

As a reminder, the MIC is the smallest concentration in the dilution series that meets the test's criterion for growth inhibition. Lower therefore signals greater potency. Consider `C=CCN1[C@H](c2ccc(C)cc2)C/C(=N\OCc2ccccc2)[C@@H](C)[C@@H]1c1ccc(C)cc1` (relative stereo), for which the minimum inhibitory concentration (MIC) with Aspergillus flavus is 100 µg/mL (≈ 228 µM); against Escherichia coli it was 200 µg/mL (≈ 456 µM); in the experiment on Staphylococcus aureus it was 100 µg/mL (≈ 228 µM); against Fusarium oxysporum it was 100 µg/mL (≈ 228 µM); against Aspergillus niger, 12.5 µg/mL (≈ 28.5 µM); against Bacillus subtilis, 50 µg/mL (≈ 114 µM). Moreover, the MIC came to 50 µg/mL (≈ 114 µM) with Rhizopus, 50 µg/mL (≈ 114 µM) in the experiment on Salmonella typhi, 6.25 µg/mL (≈ 14.2 µM) against Penicillium chrysogenum and 100 µg/mL (≈ 228 µM) against Pseudomonas.

Regarding `C=CCN1[C@@H](c2ccccc2)C/C(=N/O)C[C@H]1c1ccccc1` (relative stereo), the minimal inhibitory concentration (MIC) with Aspergillus flavus worked out at 25 µg/mL (≈ 81.6 µM); in the experiment on Escherichia coli, 25 µg/mL (≈ 81.6 µM); against Staphylococcus aureus it was 50 µg/mL (≈ 163 µM); with Fusarium oxysporum, 50 µg/mL (≈ 163 µM); against Aspergillus niger, 12.5 µg/mL (≈ 40.8 µM); in the experiment with Bacillus subtilis, 6.25 µg/mL (≈ 20.4 µM). Moreover, the MIC in the experiment with Rhizopus was determined as 25 µg/mL (≈ 81.6 µM); against Salmonella typhi it was 100 µg/mL (≈ 326 µM); against Penicillium chrysogenum it was 50 µg/mL (≈ 163 µM); in the experiment on Pseudomonas, 50 µg/mL (≈ 163 µM).

`C=CCN1[C@H](c2ccc(OC)cc2)C/C(=N\OCc2ccccc2)[C@@H](C)[C@@H]1c1ccc(OC)cc1` (relative stereo): the MIC in the experiment on Aspergillus flavus was 100 µg/mL (≈ 212 µM); in the experiment with Escherichia coli, 100 µg/mL (≈ 212 µM); with Staphylococcus aureus it was 12.5 µg/mL (≈ 26.6 µM); against Fusarium oxysporum it was 6.25 µg/mL (≈ 13.3 µM); against Aspergillus niger, 12.5 µg/mL (≈ 26.6 µM); against Bacillus subtilis, 50 µg/mL (≈ 106 µM). For the same molecule, the minimum inhibitory concentration (MIC) with Rhizopus turned out to be 25 µg/mL (≈ 53.1 µM); against Salmonella typhi, 25 µg/mL (≈ 53.1 µM); with Penicillium chrysogenum it was 50 µg/mL (≈ 106 µM); against Pseudomonas, 6.25 µg/mL (≈ 13.3 µM).

Take `C=CCN1[C@H](c2ccccc2)C/C(=N\OCc2ccccc2)[C@@H](C)[C@@H]1c1ccccc1` (relative stereo): the MIC against Aspergillus flavus stood at 50 µg/mL (≈ 122 µM); in the experiment with Escherichia coli it was 25 µg/mL (≈ 60.9 µM); in the experiment with Staphylococcus aureus it was 50 µg/mL (≈ 122 µM); in the experiment on Fusarium oxysporum it was 200 µg/mL (≈ 487 µM); in the experiment with Aspergillus niger it was 50 µg/mL (≈ 122 µM); against Bacillus subtilis it was 6.25 µg/mL (≈ 15.2 µM). The MIC against Rhizopus is 25 µg/mL (≈ 60.9 µM); with Salmonella typhi it was 12.5 µg/mL (≈ 30.4 µM); against Penicillium chrysogenum, 100 µg/mL (≈ 244 µM); against Pseudomonas, 50 µg/mL (≈ 122 µM).

Consider `C=CCN1[C@H](c2ccc(OC)cc2)CC(=O)[C@@H](C)[C@@H]1c1ccc(OC)cc1` (relative stereo), for which the minimum inhibitory concentration (MIC) in the experiment with Aspergillus flavus was found to be 50 µg/mL (≈ 137 µM); with Escherichia coli, 50 µg/mL (≈ 137 µM); in the experiment with Staphylococcus aureus it was 100 µg/mL (≈ 274 µM); against Fusarium oxysporum, 25 µg/mL (≈ 68.4 µM); against Aspergillus niger, 12.5 µg/mL (≈ 34.2 µM); in the experiment with Bacillus subtilis, 6.25 µg/mL (≈ 17.1 µM). In addition, the MIC in the experiment on Rhizopus was 25 µg/mL (≈ 68.4 µM); against Salmonella typhi, 25 µg/mL (≈ 68.4 µM); against Penicillium chrysogenum it was 50 µg/mL (≈ 137 µM); against Pseudomonas, 100 µg/mL (≈ 274 µM).

As to `C=CCN1[C@@H](c2ccccc2)C(C)(C)/C(=N/OCc2ccccc2)C[C@H]1c1ccccc1` (relative stereo), the MIC in the experiment with Aspergillus flavus was found to be 12.5 µg/mL (≈ 29.4 µM); in the experiment with Escherichia coli, 50 µg/mL (≈ 118 µM); in the experiment with Staphylococcus aureus it was 50 µg/mL (≈ 118 µM); against Fusarium oxysporum it was 12.5 µg/mL (≈ 29.4 µM); with Aspergillus niger, 25 µg/mL (≈ 58.9 µM); against Bacillus subtilis it was 6.25 µg/mL (≈ 14.7 µM). Besides, the minimum inhibitory concentration (MIC) is 50 µg/mL (≈ 118 µM) with Rhizopus, 12.5 µg/mL (≈ 29.4 µM) in the experiment on Salmonella typhi, 6.25 µg/mL (≈ 14.7 µM) against Penicillium chrysogenum and 25 µg/mL (≈ 58.9 µM) against Pseudomonas.

As for `CN[C@@H]1[C@H](O[C@H]2[C@H](O[C@H]3[C@H](O)[C@@H](O)[C@H](N=C(N)N)[C@@H](O)[C@@H]3N=C(N)N)O[C@@H](C)[C@]2(O)C=O)O[C@@H](CO)[C@H](O)[C@H]1O` [STREPTOMYCIN], the MIC was determined as 12.5 µg/mL (≈ 21.5 µM) against Escherichia coli; 50 µg/mL (≈ 86 µM) against Staphylococcus aureus; 12.5 µg/mL (≈ 21.5 µM) in the experiment on Bacillus subtilis; 50 µg/mL (≈ 86 µM) in the experiment with Salmonella typhi; 25 µg/mL (≈ 43 µM) with Pseudomonas.

As for `C[C@@H]1[C@H](O)[C@@H](C)/C=C/C=C/C=C/C=C/C=C/C=C/C=C/[C@H](O[C@@H]2O[C@H](C)[C@@H](O)[C@H](N)[C@@H]2O)C[C@@H]2O[C@](O)(C[C@@H](O)C[C@@H](O)[C@H](O)CC[C@@H](O)C[C@@H](O)CC(=O)O[C@H]1C)C[C@H](O)[C@H]2C(=O)O` [AMPHOTERICIN B], the MIC is 50 µg/mL (≈ 54.1 µM) against Aspergillus flavus; 50 µg/mL (≈ 54.1 µM) with Fusarium oxysporum; 50 µg/mL (≈ 54.1 µM) in the experiment on Aspergillus niger; 25 µg/mL (≈ 27.1 µM) in the experiment on Rhizopus; 12.5 µg/mL (≈ 13.5 µM) in the experiment on Penicillium chrysogenum.
